This note sets out measurements from ChEMBL document CHEMBL1127385, “Synthesis and diuretic activity of alkyl- and arylguanidine analogs of N,N'-dicyclohexyl-4-morpholinecarboxamidine in rats and dogs” (J Med Chem, 1994).

The test system of series [1] is Rattus norvegicus. The experiment in a line: Ratio of Total electrolytic excretion of sodium and potassium in urine of rats after peroral administration of 265 uM/Kg of drug. Type of series: ADME, organism-based. Particulars: in vivo, po.
Series [2] has as its system Rattus norvegicus. Put plainly: Tested for the diuretic activity by measuring the urinary volume after peroral administering 265 uM/Kg of drug in rats. To be noted: in vivo, po. It is filed as ADME, organism-based, Urine.
The subject of series [3] is Rattus norvegicus. Put plainly: Ratio of Total electrolytic excretion of sodium and potassium in urine of rats after intravenous administration of 7.94 uM/Kg of drug. It is filed as ADME, organism-based. Particulars: in vivo.
Series [4] concerns Rattus norvegicus. Put plainly: Total electrolytic excretion of potassium in urine of rats after peroral administration of 265 uM/Kg of drug. It is filed as ADME, organism-based. To be noted: in vivo, po.
For series [5], the system named is Rattus norvegicus. The experiment in a line: Tested for the diuretic activity by measuring the urinary volume after peroral administering 79.4 uM/Kg of drug in rats. Type of series: ADME, organism-based, Urine. Particulars: in vivo, po.
Series [6] has as its system Rattus norvegicus. The experiment in a line: Ratio of Total electrolytic excretion of sodium and potassium in urine of rats after peroral administration of 79.4 uM/Kg of drug. Type of series: ADME, organism-based. Particulars: in vivo, po.
Series [7] relates to Rattus norvegicus. The experiment in a line: Ratio of Total electrolytic excretion of sodium and potassium in urine of rats after peroral administration of 26.5 uM/Kg of drug. To be noted: in vivo, po. It is filed as ADME, organism-based.
Series [8] relates to Rattus norvegicus. Put plainly: Total electrolytic excretion of chlorine in urine of rats after peroral administration of 79.4 uM/Kg of drug. It is filed as ADME, organism-based. To be noted: in vivo, po.
Series [9] has as its system Rattus norvegicus. The experiment in a line: Total electrolytic excretion of chlorine in urine of rats after peroral administration of 265 uM/Kg of drug. Type of series: ADME, organism-based. To be noted: in vivo, po.
Series [10] relates to Rattus norvegicus. The experiment in a line: Total electrolytic excretion of sodium in urine of rats after intravenous administration of 7.94 uM/Kg of drug. Type of series: ADME, organism-based. Particulars: in vivo.
Series [11] has as its system Rattus norvegicus. Put plainly: Total electrolytic excretion of potassium in urine of rats after peroral administration of 79.4 uM/Kg of drug. Type of series: ADME, organism-based. To be noted: in vivo, po.
Series [12] relates to Rattus norvegicus. The experiment in a line: Total electrolytic excretion of chlorine in urine of rats after intravenous administration of 7.94 uM/Kg of drug. Particulars: in vivo. It is filed as ADME, organism-based.
Series [13] has as its system Rattus norvegicus. The experiment in a line: Total electrolytic excretion of sodium in urine of rats after peroral administration of 79.4 uM/Kg of drug. It is filed as ADME, organism-based. Particulars: in vivo, po.
The subject of series [14] is Rattus norvegicus. The experiment in a line: Total electrolytic excretion of sodium in urine of rats after peroral administration of 265 uM/Kg of drug. To be noted: in vivo, po. Type of series: ADME, organism-based.
Series [15] deals with Rattus norvegicus. The experiment in a line: Total electrolytic excretion of sodium in urine of rats after peroral administration of 26.5 uM/Kg of drug. It is filed as ADME, organism-based. To be noted: in vivo, po.
Series [16] relates to Rattus norvegicus. Put plainly: Total electrolytic excretion of potassium in urine of rats after peroral administration of 26.5 uM/Kg of drug. Particulars: in vivo, po. Type of series: ADME, organism-based.
In series [17] the test system is Rattus norvegicus. The experiment in a line: Total electrolytic excretion of chlorine in urine of rats after peroral administration of 26.5 uM/Kg of drug. Type of series: ADME, organism-based. Particulars: in vivo, po.
Series [18] deals with Rattus norvegicus. The experiment in a line: Total electrolytic excretion of potassium in urine of rats after peroral administration of 7.94 uM/Kg of drug. Type of series: ADME, organism-based. Particulars: in vivo, po.
Series [19] deals with Rattus norvegicus. Put plainly: Tested for the diuretic activity by measuring the urinary volume after peroral administering 26.5 uM/Kg of drug in rats. It is filed as ADME, organism-based, Urine. To be noted: in vivo, po.
In series [20] the test system is Rattus norvegicus. Put plainly: Ratio of Total electrolytic excretion of sodium and potassium in urine of rats after peroral administration of 83.8 uM/Kg of drug. To be noted: in vivo, po. Type of series: ADME, organism-based.
Series [21] relates to Rattus norvegicus. The experiment in a line: Ratio of Total electrolytic excretion of sodium and potassium in urine of rats after peroral administration of 279 uM/Kg of drug. Type of series: ADME, organism-based. Particulars: in vivo, po.
Series [22] deals with Rattus norvegicus. Put plainly: Total electrolytic excretion of potassium in urine of rats after peroral administration of 27.9 uM/Kg of drug. It is filed as ADME, organism-based. To be noted: in vivo, po.
The test system of series [23] is Rattus norvegicus. The experiment in a line: Tested for the diuretic activity by measuring the urinary volume after peroral administering 27.9 uM/Kg of drug in rats. It is filed as ADME, organism-based, Urine. Particulars: in vivo, po.
Series [24] relates to Rattus norvegicus. Put plainly: Total electrolytic excretion of chlorine in urine of rats after peroral administration of 27.9 uM/Kg of drug. It is filed as ADME, organism-based. Particulars: in vivo, po.
The test system of series [25] is Rattus norvegicus. Put plainly: Tested for the diuretic activity by measuring the urinary volume after peroral administering 83.8 uM/Kg of drug in rats. Type of series: ADME, organism-based, Urine. To be noted: in vivo, po.
Series [26] has as its system Rattus norvegicus. The experiment in a line: Total electrolytic excretion of sodium in urine of rats after peroral administration of 279 uM/Kg of drug. Particulars: in vivo, po. It is filed as ADME, organism-based.
Series [27] has as its system Rattus norvegicus. The experiment in a line: Total electrolytic excretion of sodium in urine of rats after peroral administration of 83.8 uM/Kg of drug. Particulars: in vivo, po. It is filed as ADME, organism-based.
In series [28] the test system is Rattus norvegicus. The experiment in a line: Total electrolytic excretion of chlorine in urine of rats after peroral administration of 279 uM/Kg of drug. Type of series: ADME, organism-based. To be noted: in vivo, po.
The test system of series [29] is Rattus norvegicus. The experiment in a line: Total electrolytic excretion of potassium in urine of rats after peroral administration of 279 uM/Kg of drug. Particulars: in vivo, po. It is filed as ADME, organism-based.
Series [30] has as its system Rattus norvegicus. The experiment in a line: Ratio of Total electrolytic excretion of sodium and potassium in urine of rats after peroral administration of 27.9 uM/Kg of drug. It is filed as ADME, organism-based. Particulars: in vivo, po.
The subject of series [31] is Rattus norvegicus. The experiment in a line: Total electrolytic excretion of sodium in urine of rats after peroral administration of 27.9 uM/Kg of drug. It is filed as ADME, organism-based. To be noted: in vivo, po.
Series [32] deals with Rattus norvegicus. Put plainly: Total electrolytic excretion of potassium in urine of rats after peroral administration of 83.8 uM/Kg of drug. It is filed as ADME, organism-based. Particulars: in vivo, po.
For series [33], the system named is Rattus norvegicus. The experiment in a line: Total electrolytic excretion of chlorine in urine of rats after peroral administration of 83.8 uM/Kg of drug. It is filed as ADME, organism-based. Particulars: in vivo, po.
Series [34] deals with Rattus norvegicus. Put plainly: Tested for the diuretic activity by measuring the urinary volume after peroral administering 279 uM/Kg of drug in rats. It is filed as ADME, organism-based, Urine. Particulars: in vivo, po.

Take `Cc1cccc(C)c1N/C(=N/C1CCCCC1)N1CCOCC1`: the Ratio in the series with Rattus norvegicus [1] was 6.1; with Rattus norvegicus [3] it was 6.5; in the series on Rattus norvegicus [6], 4.8; with Rattus norvegicus [7], 4.4. The V in the series with Rattus norvegicus [2] was found to be 17.4 mL; with Rattus norvegicus [5] it was 12.3 mL; in the series with Rattus norvegicus [19] it was 9.5 mL. The “Excretion K+” value in the series on Rattus norvegicus [4] is reported as 0.29 m equiv; in the series with Rattus norvegicus [11], 0.35 m equiv; in the series with Rattus norvegicus [16], 0.33 m equiv; in the series with Rattus norvegicus [18], 1.3 m equiv. Also, the “Excretion Cl-” value in the series on Rattus norvegicus [8] stood at 1.7 m equiv; in the series with Rattus norvegicus [9], 1.86 m equiv; in the series with Rattus norvegicus [12], 6.5 m equiv; in the series on Rattus norvegicus [17], 1.4 m equiv. Moreover, the “Excretion Na+” value in the series on Rattus norvegicus [10] came to 7.8 m equiv; in the series with Rattus norvegicus [13] it was 1.71 m equiv; in the series with Rattus norvegicus [14], 2.05 m equiv; with Rattus norvegicus [15], 1.44 m equiv.
For the compound `C1CCCC(/N=C(/NC2CCCCCC2)N2CCOCC2)CC1`, the Ratio with Rattus norvegicus [20] worked out at 5; in the series with Rattus norvegicus [21] it was 5.6; with Rattus norvegicus [30], 3.8. For the same compound, the “Excretion K+” value in the series on Rattus norvegicus [22] was determined as 0.32 m equiv; with Rattus norvegicus [29], 0.28 m equiv; in the series on Rattus norvegicus [32] it was 0.31 m equiv. Besides, the values for the V with Rattus norvegicus [23], in the series on Rattus norvegicus [25] and in the series with Rattus norvegicus [34] were 8.4 mL, 9.7 mL and 9.1 mL, respectively. Besides, the figures for the “Excretion Cl-” value in the series with Rattus norvegicus [24], in the series with Rattus norvegicus [28] and with Rattus norvegicus [33] were 1.37 m equiv, 1.66 m equiv and 1.63 m equiv, respectively. The “Excretion Na+” value in the series with Rattus norvegicus [26] is on record as 1.54 m equiv; with Rattus norvegicus [27], 1.53 m equiv; in the series with Rattus norvegicus [31] it was 1.21 m equiv.
Regarding `Clc1ccccc1N/C(=N/C1CCCCC1)N1CCOCC1`, the Ratio in the series with Rattus norvegicus [20] was found to be 3.5; with Rattus norvegicus [21], 4.7; in the series with Rattus norvegicus [30] it was 3. Further, the “Excretion K+” value with Rattus norvegicus [22] amounted to 0.24 m equiv; in the series on Rattus norvegicus [29], 0.31 m equiv; with Rattus norvegicus [32], 0.29 m equiv. Besides, the V in the series with Rattus norvegicus [23] was determined as 6.2 mL; in the series on Rattus norvegicus [25], 7.7 mL; with Rattus norvegicus [34], 11.2 mL. In addition, the “Excretion Cl-” value in the series on Rattus norvegicus [24] was determined as 0.84 m equiv; in the series with Rattus norvegicus [28], 1.46 m equiv; in the series on Rattus norvegicus [33], 1.06 m equiv. In addition, the “Excretion Na+” value was 1.45 m equiv in the series on Rattus norvegicus [26], 1.01 m equiv in the series with Rattus norvegicus [27] and 0.72 m equiv with Rattus norvegicus [31].
